In brackets after ≈: the same amount, converted by molar mass.
What was measured:
[1] = system: Leishmania braziliensis stationary promastigotes; assay: In vitro antileishmanial activity against promastigotes (MTT); assay type: cell-based
Procedure: The study was approved by the Committee for the Ethical Handling of Research Animals from the Federal University of Minas Gerais (protocol number 085/2017). Leishmania braziliensis (MHOM/BR/1975/M2904) promastigotes were grown at 24 °C in Schneider’s medium (Sigma-Aldrich, USA) supplemented with 20% heat-inactivated fetal bovine serum (FBS, Sigma-Aldrich, USA) and 20 mmol/L L-glutamine at pH 7.4 [65].
(§1) The in vitro antileishmanial activity was evaluated by incubating the promastigotes or axenic amastigotes (1 × 10^6 cells/well) with the 24 synthetic derivatives (Compounds 5–28; 0 to 600 µg/mL) in 96-well culture plates (Nunc, Nunclon, Roskilde, Denmark) for 48 h at 24 °C. Due to the difficulty in obtaining a high concentration of murine macrophages, the cytotoxicity experiment was evaluated by incubating such cells (5 × 10^5 per mL) with Compound 28 (0 to 600 µg/mL), which presented the best antileishmanial activity, for 48 h at 37 °C in a 5% CO2 environment. AmpB (0 to 10 µg/mL; Sigma-Aldrich, St. Louis, MO, USA) was used as a positive control in both experiments. The cell viability was assessed using the 3-(4.5-dimethylthiazol-2-yl)-2.5-diphenyl tetrazolium bromide (MTT, Sigma-Aldrich, St. Louis, MO, USA) method. The optical density (OD) values were read using a microplate spectrophotometer (Molecular Devices, Spectra Max Plus, San Jose, CA, USA) at 570 nm. Results were entered into Microsoft Excel (version 10.0) spreadsheets, and the 50% Leishmania and macrophage inhibitory concentrations (IC50 and CC50, respectively) were calculated by applying a sigmoidal regression of the dose–response curve. The SI was calculated by dividing the CC50 with the respective IC50 values.

[2] = system: Leishmania braziliensis axenic amastigotes; assay: In vitro antileishmanial activity against axenic amastigotes (MTT); assay type: cell-based
Procedure: To obtain the axenic amastigotes, 1 × 10^9 stationary promastigotes were washed three times in sterile phosphate-buffered saline (PBS) and incubated in 5 mL FBS for 48 h at 37 °C. Parasites were washed with cold PBS, and their morphology was evaluated with an optical microscope after Giemsa staining as previously described.
as §1

[3] = Cytotoxicity in mammalian cells (MTT); assay type: cell-based; conditions: mouse; murine macrophages, 48 h at 37 °C in 5% CO2, MTT, mean ± standard deviation
Procedure: as §1

[4] = system: L. braziliensis-infected macrophages; assay: Treatment of infected macrophages; assay type: cell-based, Leishmania braziliensis; conditions: 48 h at 37 °C; for Number of Amastigotes per Cell after treatment: untreated 10.3; for Percentage of Infected Macrophages after Treatment: untreated 92.8
Procedure: Murine macrophages (5 × 10^5 cells) were plated on round glass coverslips in 24-well plates in RPMI 1640 medium with added 20% FBS and 20 mmol/L L-glutamine at pH 7.4 and incubated for 24 h at 37 °C in 5% CO2. Promastigotes were added to the wells (at a ratio of 10 parasites per macrophage), and cultures were incubated for 48 h at 37 °C in a 5% CO2 environment. Free parasites were removed by extensive washing with RPMI 1640 medium, and the infected macrophages were treated with Compound 28 or AmpB (0, 1.0, 2.5 and 5.0 µg/mL in both cases) for 48 h at 37 °C in 5% CO2.
(§2) To evaluate the inhibition of infection, promastigotes (5 × 10^6 cells) were first incubated with Compound 28 or AmpB (0, 1.0, 2.5 and 5.0 µg/mL in both cases) for 4 h at 24 °C; these were then used to infect murine macrophages (at a ratio of 10 parasites per macrophage) and incubated for 24 h at 37 °C in 5% CO2. Then, cells were fixed with 4% paraformaldehyde, washed, and stained with Giemsa. The percentage of infected macrophages and the number of recovered amastigotes were determined by counting 200 cells, in triplicate, using an optical microscope.

[5] = system: L. braziliensis promastigotes infecting murine macrophages; assay: Inhibition of infection (parasites pre-incubated with compound, then used to infect macrophages); assay type: cell-based, Leishmania braziliensis; conditions: for Number of Amastigotes per Cell using pre-incubated parasites: untreated 8.9; for Percentage of Infected Macrophages Using Pre-Incubated Parasites: untreated 90.5
Procedure: as §2

[6] = parasites pre-incubated with 2.5 µg/mL at 24 °C
[7] = parasites pre-incubated with 5.0 µg/mL at 24 °C

With `C[C@@H]1[C@H](O)[C@@H](C)/C=C/C=C/C=C/C=C/C=C/C=C/C=C/[C@H](O[C@@H]2O[C@H](C)[C@@H](O)[C@H](N)[C@@H]2O)C[C@@H]2O[C@](O)(C[C@@H](O)C[C@@H](O)[C@H](O)CC[C@@H](O)C[C@@H](O)CC(=O)O[C@H]1C)C[C@H](O)[C@H]2C(=O)O` [Amphotericin B, amphotericin B, reference compound] as the compound, how does the “Selectivity index (SI), ratio CC50/IC50, promastigotes” value ([1]; CC50 murine macrophages / IC50 promastigotes) read?
Its value is 9.1.

And the IC50 ([1]; Leishmania braziliensis, 48 h at 24 °C, MTT, mean ± standard deviation)?
The IC50 was 0.974 ± 0.2 µg/mL (≈ 1.05 µM).

What about the “Selectivity index (SI), ratio CC50/IC50, axenic amastigotes” value ([2]; CC50 murine macrophages / IC50 axenic amastigotes) of the same compound?
The value was 6.8.

And the IC50 ([2]; Leishmania braziliensis, 48 h, 48 h at 24 °C, MTT, mean ± standard deviation)?
Its IC50 is 1.3 ± 0.4 µg/mL (≈ 1.41 µM).

What about the CC50 at 48 h [3] of the same compound?
The CC50 at 48 h was 8.9 ± 0.8 µg/mL (≈ 9.63 µM).

And the “Number of Amastigotes per Cell after treatment” value ([4]; 1.0 µg/mL)?
The value was 4.2.

What about the “Percentage of Infected Macrophages after Treatment” value (“Percentage … after Treatment” for short) ([4]; 1.0 µg/mL) of the same compound?
The value was 39.1%.

And the “Number of Amastigotes per Cell after treatment” value ([4]; 2.5 µg/mL)?
The value was 3.5.

What about the “Percentage … after Treatment” value ([4]; 2.5 µg/mL) of the same compound?
The value was 27.6%.

What about the “Number of Amastigotes per Cell after treatment” value ([4]; 5.0 µg/mL) of the same compound?
The value was 1.8.

What about the “Percentage … after Treatment” value ([4]; 5.0 µg/mL) of the same compound?
Its value is 19.8%.

And the “Number of Amastigotes per Cell using pre-incubated parasites” value [5, 6]?
The value was 6.5.

And the “Percentage of Infected Macrophages Using Pre-Incubated Parasites” value [5, 6]?
The value was 67.6%.

And the “Number of Amastigotes per Cell using pre-incubated parasites” value [5, 7]?
The value was 5.3.

And the “Percentage of Infected Macrophages Using Pre-Incubated Parasites” value [5, 7]?
The value was 51.4%.
